From the Deep4Chem optical property database come the findings set out here.

The series can be described thus: solvent given as SMILES.
The mark [1] stands for this setting: in c1cc(-c2cccc(-n3c4ccccc4c4ccccc43)c2)cc(-n2c3ccccc3c3ccccc32)c1.

SMILES strings stand for the structures.

Turning to `ClC(Cl)=C1c2ccccc2C(C2(Cl)c3ccccc3C(=C(Cl)Cl)c3ccccc32)c2ccccc21` (configuration not stated), the fluorescence lifetime is, setting by setting: (in C1CCCCC1) 10.4 ns; (in CCCCCO) 16 ns; (in CCCCO) 12.6 ns; (in CCCO) 11.9 ns; (in CCO) 11.7 ns; (in CO) 11.2 ns.
Where the note is “in ClCCl”, `COCCOCCOCCOCC(COCCOCCOCCOC)Oc1cc(/C=C/c2ccc(/C=C(\C#N)c3ccncc3)cc2)c(OC(COCCOCCOCCOC)COCCOCCOCCOC)cc1/C=C/c1ccc(/C=C(\C#N)c2ccncc2)cc1` displayed a fluorescence lifetime of 1.7 ns.
Regarding `CC1=CC(C)=[N+]2C1=Cc1c(C)cc(C)n1[B-]2(F)F`, the fluorescence lifetime is, setting by setting: (in CCCCCC) 5.85 ns; (in CO) 5.95 ns; (in ClCCl) 5.73 ns.
Regarding `O=C1c2ccc(N(c3ccc(-c4ccccc4)cc3)c3ccc(-c4ccccc4)cc3)cc2C(=O)c2ccc(N(c3ccc(-c4ccccc4)cc3)c3ccc(-c4ccccc4)cc3)cc21`, the fluorescence lifetime came out at 3.5 ns (in Cc1ccccc1) and 5.6 ns (in c1ccc2c(c1)c1ccccc1n2-c1ccc(-c2ccc(-n3c4ccccc4c4ccccc43)cc2)cc1).
As for `Cn1c(=O)c(/N=N/c2ccc(Nc3ccccc3)c(S(=O)(=O)O)c2)c(O)c2ccccc21`, the fluorescence lifetime (in CS(C)=O) was determined as 0.05 ns.
With `C=CC12N=N[C@](C=C)(C3C4CCC(C4)C31)C1[C@@H]3CC[C@@H](C3)[C@H]12` (some centres not stated), under “in CC#N”, the fluorescence lifetime stood at 268 ns.
Take `O=C1c2ccccc2C(=O)C1C1C(=O)c2c3ccccc3cc3cc4ccccc4c1c23` (configuration not stated): the fluorescence lifetime runs as follows: (in C1CCOC1) 13.5 ns; (in CC#N) 8.4 ns; (in CCCCCC) 12.9 ns; (in Cc1ccccc1) 14.1 ns; (in ClCCl) 11 ns.
Take `C/C=C/c1cccc(OC)c1`: the fluorescence lifetime is 6.5 ns (in CC#N) and 5.9 ns (in CCCCCC).
`CC(C)[Si](C#Cc1c2ccccc2c(C#C[Si](C(C)C)(C(C)C)C(C)C)c2nc3cc4c(cc3nc12)C1c2ccccc2C4c2ccccc21)(C(C)C)C(C)C`: the fluorescence lifetime turned out to be 13.3 ns (in CCCCCC) and 18.3 ns (in ClCCl).
As for `CN(C)c1ccc(-c2cc(-c3ccc4ccccc4c3)nc(-c3ccccc3)n2)cc1`, the fluorescence lifetime turned out to be 2.9 ns (in C1CCCCC1), 1.6 ns (in CS(C)=O) and 2.4 ns (in ClC(Cl)Cl).
Consider `COc1ccc(-c2c3ccc([nH]3)c3nc(c(-c4ccc([N+](=O)[O-])cc4)c4ccc([nH]4)c4ccc([nH]4)c(-c4ccc(OC)cc4)c4ccc2o4)C=C3)cc1`, for which the fluorescence lifetime (in C1CCOC1) worked out at 0.66 ns, the fluorescence lifetime (in Cc1ccccc1) was determined as 4.33 ns and the fluorescence lifetime (in c1ccccc1) came out at 4.2 ns.
Consider `CCN1C(=O)C(C2C(=O)c3c4ccccc4cc4cc5ccccc5c2c34)SC1=S` (configuration not stated), for which the fluorescence lifetime is, setting by setting: (in C1CCOC1) 11.8 ns; (in CC#N) 7.8 ns; (in CCCCCC) 12.8 ns; (in Cc1ccccc1) 13.2 ns; (in ClCCl) 10.4 ns.
For the molecule `c1ccc2c(-n3c4ccccc4c4ccccc43)cccc2c1`, the fluorescence lifetime runs as follows: (in C1CCCCC1) 4.9 ns; (in CCOC(C)=O) 4.9 ns; (in CO) 5.1 ns.
Turning to `C[n+]1ccc2c(ccc3c[n+](C)ccc32)c1`, the fluorescence lifetime (in CC#N) worked out at 6.6 ns.
As for `Nc1cccc2c1C(=O)c1ccccc1-2`, the fluorescence lifetime by setting is: (in C1CCCCC1) 0.8 ns; (in CC#N) 2.3 ns; (in c1ccccc1) 1.4 ns.
On to `CN(C)c1ccc2c(-c3cc(C(=O)[O-])ccc3C(=O)[O-])c3ccc(=[N+](C)C)cc-3oc2c1`, for which the fluorescence lifetime (in CCO) was 3.3 ns and the fluorescence lifetime (in O) came to 2.36 ns.
Where the note is “in ClC(Cl)Cl”, `CC(C)(C)N1C(=O)c2c(cc3ccc4cccc5ccc2c3c45)C1O` (configuration not stated) showed a fluorescence lifetime of 4.93 ns.
The molecule `CCOc1cccc2c1O[B-](F)(F)[n+]1c3c(c4c(c1-2)-c1ccccc1CC4)-c1ccccc1CC3` returned a fluorescence lifetime (in ClCCl) of 1.73 ns.
In turn, `F[B-]1(F)OC(c2ccc(N3CCCCC3)cc2)=Cc2cccc[n+]21` yielded a fluorescence lifetime (in ClC(Cl)Cl) of 2.68 ns.
Where the note is “in c1ccccc1”, `COc1ccc(-c2nc3ccccc3oc2=O)cc1` displayed a fluorescence lifetime of 2.5 ns.
Take `CC(C)(C)NC1=C2C=CC=[N+]2[B-](F)(F)n2cccc21`: the fluorescence lifetime is 6.17 ns (in C1CCCCC1); 0.0272 ns (in CC(C)=O); 0.0307 ns (in CCO); 0.188 ns (in CCOC(C)=O); 0.019 ns (in CO); 0.125 ns (in OCC(F)(F)F).
On to `CCCCC(CC)CN1C(=O)C2=C(c3ccc(-c4ccc(C5=C6C(C)=CC(C)=[N+]6[B-](F)(F)n6c(C)cc(C)c65)cc4)s3)N(CC(CC)CCCC)C(=O)C2=C1c1ccc(-c2ccc(C3=C4C(C)=CC(C)=[N+]4[B-](F)(F)n4c(C)cc(C)c43)cc2)s1` (configuration not stated), for which the fluorescence lifetime (in Cc1ccccc1) is 3.36 ns.
For the setting “in ClCCl”, `N#CC(C#N)=Cc1ccc2c(c1)c1ccccc1n2-c1cc2ccccc2c2ccccc12` came in with a fluorescence lifetime of 4.68 ns.
Take `C(=C\c1ccccn1)/c1ccc(N(c2ccc(/C=C/c3ccccn3)cc2)c2ccc(-c3nc4ccccc4nc3-c3ccc(N(c4ccc(/C=C/c5ccccn5)cc4)c4ccc(/C=C/c5ccccn5)cc4)cc3)cc2)cc1`: the fluorescence lifetime (in C1CCOC1) amounted to 1.17 ns.
Under “in CN(C)C=O”, `CCC1=C(C)C2=C(c3cc(C(=O)Cl)cc(C4=C5C(C)=C(CC)C(C)=[N+]5[B-](F)(F)n5c(C)c(CC)c(C)c54)c3)c3c(C)c(CC)c(C)n3[B-](F)(F)[N+]2=C1C` yielded a fluorescence lifetime of 4.1 ns.
As to `ClP1(Cl)=NP(Cl)(Cl)=NP(Cl)(Oc2ccc3ccc4cccc5ccc2c3c45)=N1` (configuration not stated), the fluorescence lifetime (in ClCCl) is 3.29 ns.
With `Cc1cc(C)c(B(c2cc3ccc4cccc5ccc(c2)c3c45)c2c(C)cc(C)cc2C)c(C)c1`, the fluorescence lifetime (in Cc1ccccc1) turned out to be 49 ns.
On the same count and under the same terms, in the case of `N#Cc1c(-n2c3ccc(-c4ccccc4)cc3c3cc(-c4ccccc4)ccc32)c(-n2c3ccccc3c3ccccc32)c(-n2c3ccc(-c4ccccc4)cc3c3cc(-c4ccccc4)ccc32)c(-n2c3ccccc3c3ccccc32)c1-n1c2ccc(-c3ccccc3)cc2c2cc(-c3ccccc3)ccc21` it was 5.2 ns.
On to `COc1ccc(-c2oc3cccc4c5c(-c6ccc(OC)c(OC)c6)/c(=N/S(=O)(=O)C(F)(F)F)oc6cccc(c2c34)c65)cc1OC`, for which the fluorescence lifetime (in ClC(Cl)Cl) is 4.4 ns.
For `COC(=O)c1cc(=O)n(C)c2cc(-c3ccc(OC)cc3)sc12`, for the setting “in ClCCl”, the fluorescence lifetime amounted to 2.3 ns.
In turn, `Cc1nnc(-c2cc(-c3nnc(C)o3)c(-n3c4ccccc4c4ccccc43)cc2-n2c3ccccc3c3ccccc32)o1` yielded a fluorescence lifetime (in Cc1ccccc1) of 6.5 ns and a fluorescence lifetime (in O=P(c1ccccc1)(c1ccccc1)c1ccccc1Oc1ccccc1P(=O)(c1ccccc1)c1ccccc1) of 8.5 ns.
As to `Cc1ccc(-c2ccc(/C=C/c3ccccc3)cn2)nc1`, the fluorescence lifetime (in CC#N) came out at 1.06 ns.
Take `CC(C)c1cc(C(C)C)c(B2c3cc(N4c5ccccc5C(C)(C)c5ccccc54)ccc3N(c3ccccc3)c3ccc(N4c5ccccc5C(C)(C)c5ccccc54)cc32)c(C(C)C)c1`: the fluorescence lifetime under setting [1] came out at 17 ns.
Take `N#CC1=c2c3cccc4cccc(c43)n2[B-](F)(F)[n+]2ccccc21`: the fluorescence lifetime (in ClCCl) was found to be 8.7 ns.
In turn, `CC[n+]1nc2cc3c4c(c2c2ccccc21)CCCN4CCC3` showed a fluorescence lifetime (in O) of 3.6 ns.
In turn, `Cc1cccc(C)c1Nc1ccc(/C=C/c2ccc3ccccc3c2)cc1` gave a fluorescence lifetime (in CC#N) of 0.2 ns.
`CC1=CC(C)=[N+]2C1=C(c1ccc(I)cc1)c1c(C)cc(C)n1[B-]21OCCO1` had a fluorescence lifetime (in ClC(Cl)Cl) of 0.93 ns.
With `CC1(C)c2ccccc2N(c2ccc3c(c2)c2ccccc2c2nc4ccccc4nc32)c2ccccc21`, the fluorescence lifetime under setting [1] came to 68 ns.
Where the note is “in Cc1ccccc1”, `COC(=O)/C(C#N)=c1\s/c(=c2/s/c(=C(/C#N)C(=O)OC)c3cc(-c4ccc(C(F)(F)F)cc4)sc23)c2sc(-c3ccc(C(F)(F)F)cc3)cc12` displayed a fluorescence lifetime of 2.32 ns.
